Data reported in US4760148A, “5-aralkyl substituted 2H-benzotriazoles and stabilized compositions” (Ciba-Geigy Corporation, priority 1985, dated 1988).

What was measured:
[1] = in words, prior art patents; cited from earlier work
[2] = in words, prior art patents; cited from earlier work; remark: listed apart in the source
[3] = Solubility of benzotriazole stabilizers; assay type: physicochemical; conditions: 25° C.
From the text: The benzotriazole stabilizers are classically materials with relatively low solubility in common organic solvents. This is particularly the case where the benzotriazole is substituted in the 2-phenyl ring with aralkyl groups intended to decrease stabilizer volatility during processing and use.

[4] = Thermal gravimetric analysis (resistance to loss of benzotriazole stabilizers); conditions: for Time (minutes) to 50% Weight Loss of Stabilizer: isothermal at 280° C.; for Time (minutes) to 50% Weight Loss of Stabilizer / Temperature °C. to 10% Weight Loss of Stabilizer / Temperature °C. to 50% Weight Loss of Stabilizer: 100 ml nitrogen/minute; for Temperature °C. to 10% Weight Loss of Stabilizer / Temperature °C. to 50% Weight Loss of Stabilizer: scanning at 10°(C.) per minute; for resistance to thermogravimetric loss: in words, compared with prior art benzotriazole F
Protocol: A number of 2-aryl-2H-benzotriazole light stabilizers are subjected to thermal gravimetric analysis with a flow rate of 100 ml nitrogen/minute both isothermally at 280° C. to indicate the time in minutes to reach 50% weight loss of the stabilizer as well as in a scanning mode at a heating rate of 10° (C.) per minute to ascertain the temperature at which 10% and 50% weight loss of stabilizer are observed.

[5] = Absorbance at 340nm (extinction coefficients); assay type: physicochemical; conditions: for Specific Extinction Coefficient a: equal weight basis
From the text: The compounds of this invention show unanticipated enhancement of absorbance at 340nm as can be seem from a comparison of molar extinction coefficients E compared to state of the art compund F which lacks an aralkyl-substituent in the 5-position. In many cases the enhanced absorbance is also seen when products are compared i.e. in terms of Specific Extinction Coefficients a on an equal weight rather than molar basis.
Molar Extinction Coefficient E = a × molecular weight

[6] = Stabilizer loss on milling into polycarbonate resin; conditions: milling at 400° F. (240° C.), 15 minutes, spectrophotometric
Protocol: Samples of light stabilizers are incorporated into polycarbonate resin by milling at 400° F. ([…]) for a 15 minute period. […] At the end of the milling period the percent stabilizer loss is determined spectrophotometrically.

[7] = Solubility of crystalline modification forms; assay type: physicochemical; conditions: organic solvents including xylene and methyl amyl ketone

Structure (SMILES) | solubility in substrates and processing solvents [1] | resistance to loss by volatilization [2] | Solubility in Butyl Cellosolve Acetate [3] | Solubility in Heptane [3] | Solubility in Methyl Amyl Ketone [3] | Solubility in Xylene [3] | Time (minutes) to 50% Weight Loss of Stabilizer [4] [min] | Temperature °C. to 10% Weight Loss of Stabilizer [4] [°C] | Temperature °C. to 50% Weight Loss of Stabilizer [4] [°C] | Molar Extinction Coefficient E [5] [L/mol/cm] | Specific Extinction Coefficient a [5] [L/g/cm] | % loss (by weight) of stabilizer [6] [%] | resistance to thermogravimetric loss [4] | solubility of crystalline form melting at 114°-116° C. versus the other crystalline form [7] | compatibility / performance in substrates [1]
CC(C)(C)CC(C)(C)c1cc(-n2nc3ccccc3n2)c(O)c(C(C)(C)CC(C)(C)C)c1 [2-(2-hydroxy-3,5-di-tert-octylphenyl)-2H-benzotriazole] | enhanced solubility in processing solvents and substrates | did not have outstanding resistance to loss by volatilization | – | – | – | – | – | – | – | – | – | – | – | – | –
CCC(C)(C)c1cc(-n2nc3ccccc3n2)c(O)c(C(C)(C)CC)c1 [Compound B, 2(2-hydroxy-3,5-di-tert-amylphenyl)-2H--benzotriazole] | – | – | 19 grams per 100 grams solvent | 23 grams per 100 grams solvent | 34 grams per 100 grams solvent | 70 grams per 100 grams solvent | 0.9 | 200 | 233 | – | – | – | – | – | –
CC(C)(c1ccccc1)c1cc(-n2nc3ccccc3n2)c(O)c(C(C)(C)c2ccccc2)c1 [Compound F, 2-[2-hydroxy-3,5-di-(alpha,alpha-dimethylbenzyl)phenyl]-2 H-benzotriazole] | relatively low solubility in some substrates and processing solvents | superior resistance to loss from stabilized compositions during high temperature processing | 14 grams per 100 grams solvent | 1.5 grams per 100 grams solvent | 6 grams per 100 grams solvent | 16 grams per 100 grams solvent | 24 | 300 | 340 | 15100 | 34 | < 3 | – | – | –
CC(C)(C)CC(C)(C)c1cc(-n2nc3ccccc3n2)c(O)c(C(C)(C)c2ccccc2)c1 [Compound G, 2-[2-hydroxy-3-(alpha,alpha-dimethylbenzyl)-5-tert-octylphenyl]-2H-benzotriazole] | – | – | 19 grams per 100 grams solvent | 9.7 grams per 100 grams solvent | 33 grams per 100 grams solvent | 82 grams per 100 grams solvent | 7.4 | 267 | 307 | – | – | – | – | – | –
CC(C)(C)c1cc(-n2nc3ccc(C(C)(C)c4ccccc4)cc3n2)c(O)c(C(C)(C)C)c1 [Example 7, 5-alpha,alpha-Dimethylbenzyl-2-(2-hydroxy-3,5-di-tert-butylphenyl)-2H-benzotriazole] | – | – | 61 grams per 100 grams solvent | 97 grams per 100 grams solvent | 128 grams per 100 grams solvent | 197 grams per 100 grams solvent | 19 | 295 | 338 | 19000 | 43 | < 3 | similar | – | –
CC(C)(c1ccccc1)c1cc(-n2nc3ccc(C(C)(C)c4ccccc4)cc3n2)c(O)c(C(C)(C)c2ccccc2)c1 [Example 21, 5-alpha,alpha-Dimethylbenzyl-2-[2-hydroxy-3,5-di (alpha, alpha-dimethylbenzyl)phenyl]-2H-benzotriazole] | – | – | – | – | – | – | 2040 | 365 | 412 | 19500 | 28 | < 3 | very much more resistant to thermogravimetric loss | far greater solubility in many organic solvents | –
CC(C)(C)CC(C)(C)c1cc(-n2nc3ccc(C(C)(C)c4ccccc4)cc3n2)c(O)c(C(C)(C)c2ccccc2)c1 [Example 22, 5-alpha,alpha-Dimethylbenzyl-2-(2-hydroxy-3-alpha,alpha-dimethylbenzyl-5-tert-octylphenyl)-2H-benzotriazole] | – | – | – | – | – | – | 840 | 340 | 387 | 18500 | 33 | – | – | – | –
CCC(C)(C)c1cc(-n2nc3ccc(C(C)(C)c4ccccc4)cc3n2)c(O)c(C(C)(C)CC)c1 [Example 23] | – | – | > 100 grams per 100 grams solvent | > 100 grams per 100 grams solvent | > 100 grams per 100 grams solvent | > 100 grams per 100 grams solvent | 33 | 285 | 325 | 19100 | 41 | – | – | – | –
CC(C)(C)CC(C)(C)c1cc(-n2nc3ccc(C(C)(C)c4ccccc4)cc3n2)c(O)c(C(C)(C)CC(C)(C)C)c1 [Example 24, 5-alpha,alpha-Dimethylbenzyl-2-(2-hydroxy-3,5-di-tert-octylphenyl)-2H-benzotriazole] | – | – | – | – | – | – | 40 | 308 | 348 | 17400 | 31 | – | – | – | –
CC(C)(c1ccccc1)c1cc(-n2nc3ccc(Cc4ccccc4)cc3n2)c(O)c(C(C)(C)c2ccccc2)c1 [Example 26, 5-Benzyl-2-[2-hydroxy-3,5-di-(alpha,alpha-dimethylbenzyl)phenyl]-2H-benzotriazole] | – | – | – | – | – | – | 3780 | 360 | 405 | 18500 | 35 | – | very much more resistant to thermogravimetric loss | – | –
Cc1ccc(O)c(-n2nc3ccccc3n2)c1 [Stabilizer A, 2(2-hydroxy-5-methylphenyl)-2H--benzotriazole] | – | – | – | – | – | – | 0.75 | 182 | 215 | – | – | – | – | – | –
CCC(C)c1cc(-n2nc3ccccc3n2)c(O)c(C(C)(C)C)c1 (stereo not shown) [Stabilizer C, 2(2-hydroxy-3-tert-butyl-5-sec-butylphenyl)-2H--benzotriazole] | – | – | – | – | – | – | 1.0 | 210 | 247 | – | – | – | – | – | –
CC(C)(C)CC(C)(C)c1ccc(O)c(-n2nc3ccccc3n2)c1 [Stabilizer D, 2-(2-hydroxy-5-tert-octylphenyl)-2H-benzotriazole] | – | – | – | – | – | – | 1.9 | 225 | 260 | – | – | 40 | – | – | superior compatibility and performance in polyethylene
Cc1cc(C(C)c2ccccc2)c(O)c(-n2nc3ccccc3n2)c1 (stereo not shown) [Stabilizer E, 2-[2-hydroxy-3-(1-phenylethyl)-5-methylphenyl]-2H-benzotriazole] | – | better resistance to loss by volatilization during processing | – | – | – | – | 3.0 | 250 | 290 | – | – | – | – | – | better compatibility
